Source: PubChem BioAssay AID2060893 (Molecular Pharmacology Branch, DTP, NCI, 2025)
pIC50: −log10 of the molar value.

System: K86415-001-R-J1-PDC complex spheroids, viability
Assay: Anticancer human tumor K86415-001-R-J1-PDC patient-derived lung adenocarcinoma cell line growth inhibition [RAS]
Details: for pIC50: curve of first compound; for viability, T/C: stronger effect = lower value
Method in brief: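 Multi-cell-type spheroids: tumor cells plus HUVEC endothelial cells and mesenchymal stem cells. RAS-pathway inhibitors were combined with targeted agents, each dosed in half-log steps down from clinical Cmax, or from 10 microM when Cmax was unknown.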

[1] = second compound 0.000949 µM, first compound 0.0316 µM
[2] = second compound 0.000949 µM, first compound 0.1 µM
[3] = second compound 0.000949 µM, first compound 0.316 µM
[4] = second compound 0.000949 µM, first compound 1 µM
[5] = second compound 0.000949 µM, first compound 3.16 µM
[6] = second compound 0.000949 µM, first compound 10 µM
[7] = second compound 0.003 µM, first compound 0.0316 µM
[8] = second compound 0.003 µM, first compound 0.1 µM
[9] = second compound 0.003 µM, first compound 0.316 µM
[10] = second compound 0.003 µM, first compound 1 µM
[11] = second compound 0.003 µM, first compound 3.16 µM
[12] = second compound 0.003 µM, first compound 10 µM
[13] = second compound 0.00949 µM, first compound 0.0316 µM
[14] = second compound 0.00949 µM, first compound 0.1 µM
[15] = second compound 0.00949 µM, first compound 0.316 µM
[16] = second compound 0.00949 µM, first compound 1 µM
[17] = second compound 0.00949 µM, first compound 3.16 µM
[18] = second compound 0.00949 µM, first compound 10 µM
[19] = second compound 0.03 µM, first compound 0.0316 µM
[20] = second compound 0.03 µM, first compound 0.1 µM
[21] = second compound 0.03 µM, first compound 0.316 µM
[22] = second compound 0.03 µM, first compound 1 µM
[23] = second compound 0.03 µM, first compound 3.16 µM
[24] = second compound 0.03 µM, first compound 10 µM
[25] = second compound 0.0949 µM, first compound 0.0316 µM
[26] = second compound 0.0949 µM, first compound 0.1 µM
[27] = second compound 0.0949 µM, first compound 0.316 µM
[28] = second compound 0.0949 µM, first compound 1 µM
[29] = second compound 0.0949 µM, first compound 3.16 µM
[30] = second compound 0.0949 µM, first compound 10 µM
[31] = second compound 0.3 µM, first compound 0.0316 µM
[32] = second compound 0.3 µM, first compound 0.1 µM
[33] = second compound 0.3 µM, first compound 0.316 µM
[34] = second compound 0.3 µM, first compound 1 µM
[35] = second compound 0.3 µM, first compound 3.16 µM
[36] = second compound 0.3 µM, first compound 10 µM
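Also: spheroids exposed to agents for seven days before readout.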

Question: Which results are given for `CC(=O)OC12COC1CC(O)C1(C)C(=O)C(O)C3=C(C)C(OC(=O)C(O)C(NC(=O)OC(C)(C)C)c4ccccc4)CC(O)(C(OC(=O)c4ccccc4)C21)C3(C)C` (stereo unspecified) + CCn1c(-c2cccnc2C(C)OC)c2c3cc(ccc31)N1CCOC(CC(NC(=O)C(C(C)C)N(C)C(=O)C3(F)CCN(C(=O)C#CC(C)(C)N(C)C)CC3)C(=O)N3CCCC(N3)C(=O)OCC(C)(C)C2)C1?
Answer: pIC50 (second compound 0.000949 µM): > 7.50; pIC50 (second compound 0.003 µM): > 7.50; pIC50 (second compound 0.00949 µM): > 7.50; pIC50 (second compound 0.03 µM): > 7.50; pIC50 (second compound 0.0949 µM): > 7.50; pIC50 (second compound 0.3 µM): > 7.50; viability, T/C [1]: 18.7%; viability, T/C [2]: 15.3%; viability, T/C [3]: 11.3%; viability, T/C [4]: 17.3%; viability, T/C [5]: 16.2%; viability, T/C [6]: 12.4%; viability, T/C [7]: 15.4%; viability, T/C [8]: 12%; viability, T/C [9]: 11.3%; viability, T/C [10]: 10.1%; viability, T/C [11]: 12.7%; viability, T/C [12]: 9.57%; viability, T/C [13]: 13.6%; viability, T/C [14]: 10.8%; viability, T/C [15]: 12.1%; viability, T/C [16]: 11.7%; viability, T/C [17]: 11.5%; viability, T/C [18]: 7.67%; viability, T/C [19]: 10.3%; viability, T/C [20]: 14.9%; viability, T/C [21]: 10.9%; viability, T/C [22]: 11.3%; viability, T/C [23]: 10.9%; viability, T/C [24]: 12.1%; viability, T/C [25]: 11.4%; viability, T/C [26]: 9.46%; viability, T/C [27]: 10.1%; viability, T/C [28]: 10.8%; viability, T/C [29]: 6.98%; viability, T/C [30]: 8.55%; viability, T/C [31]: 10.3%; viability, T/C [32]: 7.45%; viability, T/C [33]: 7.7%; viability, T/C [34]: 5.41%; viability, T/C [35]: 6.82%; viability, T/C [36]: 7.01%

Question: How did the pIC50 (second compound 0.000949 µM) turn out when `NC1c2ccccc2OC12CCN(c1cnc3c(N4CCCc5ncccc54)n[nH]c3n1)CC2` (stereo unspecified) + CCn1c(-c2cccnc2C(C)OC)c2c3cc(ccc31)N1CCOC(CC(NC(=O)C(C(C)C)N(C)C(=O)C3(F)CCN(C(=O)C#CC(C)(C)N(C)C)CC3)C(=O)N3CCCC(N3)C(=O)OCC(C)(C)C2)C1 was run?
Answer: > 7.50

Question: And the pIC50 (second compound 0.003 µM)?
Answer: > 7.50

Question: And the pIC50 (second compound 0.00949 µM)?
Answer: > 7.50

Question: And the pIC50 (second compound 0.03 µM)?
Answer: > 7.50

Question: And the pIC50 (second compound 0.0949 µM)?
Answer: > 7.50

Question: What about the pIC50 (second compound 0.3 µM) of the same compound?
Answer: > 7.50

Question: And the viability, T/C [1]?
Answer: 13.4%

Question: What about the viability, T/C [2] of the same compound?
Answer: 8.22%

Question: What about the viability, T/C [3] of the same compound?
Answer: 6.07%

Question: What about the viability, T/C [4] of the same compound?
Answer: 6.52%

Question: And the viability, T/C [5]?
Answer: 7.18%

Question: And the viability, T/C [6]?
Answer: 5.23%

Question: And the viability, T/C [7]?
Answer: 5.86%

Question: What about the viability, T/C [8] of the same compound?
Answer: 4.35%

Question: What about the viability, T/C [9] of the same compound?
Answer: 4.13%

Question: What about the viability, T/C [10] of the same compound?
Answer: 4.19%

Question: And the viability, T/C [11]?
Answer: 4.18%

Question: What about the viability, T/C [12] of the same compound?
Answer: 3.63%

Question: What about the viability, T/C [13] of the same compound?
Answer: 6.83%

Question: What about the viability, T/C [14] of the same compound?
Answer: 4.56%

Question: What about the viability, T/C [15] of the same compound?
Answer: 3.88%

Question: What about the viability, T/C [16] of the same compound?
Answer: 3.79%

Question: What about the viability, T/C [17] of the same compound?
Answer: 3.72%

Question: What about the viability, T/C [18] of the same compound?
Answer: 4.04%

Question: What about the viability, T/C [19] of the same compound?
Answer: 5.26%

Question: And the viability, T/C [20]?
Answer: 5.42%

Question: What about the viability, T/C [21] of the same compound?
Answer: 4.52%

Question: What about the viability, T/C [22] of the same compound?
Answer: 3.97%

Question: And the viability, T/C [23]?
Answer: 2.82%

Question: What about the viability, T/C [24] of the same compound?
Answer: 3.8%

Question: And the viability, T/C [25]?
Answer: 6.89%

Question: And the viability, T/C [26]?
Answer: 5.55%

Question: What about the viability, T/C [27] of the same compound?
Answer: 3.94%

Question: And the viability, T/C [28]?
Answer: 3.94%

Question: And the viability, T/C [29]?
Answer: 2.53%

Question: What about the viability, T/C [30] of the same compound?
Answer: 3.05%

Question: And the viability, T/C [31]?
Answer: 5.95%

Question: What about the viability, T/C [32] of the same compound?
Answer: 4.18%

Question: What about the viability, T/C [33] of the same compound?
Answer: 4.35%

Question: What about the viability, T/C [34] of the same compound?
Answer: 2.49%

Question: What about the viability, T/C [35] of the same compound?
Answer: 2.46%

Question: What about the viability, T/C [36] of the same compound?
Answer: 2.39%

Question: With `Nc1ccn(C2OC(CO)C(O)C2(F)F)c(=O)n1` (stereo unspecified) + CCn1c(-c2cccnc2C(C)OC)c2c3cc(ccc31)N1CCOC(CC(NC(=O)C(C(C)C)N(C)C(=O)C3(F)CCN(C(=O)C#CC(C)(C)N(C)C)CC3)C(=O)N3CCCC(N3)C(=O)OCC(C)(C)C2)C1 as the compound, how does the pIC50 (second compound 0.000949 µM) read?
Answer: > 8.50

Question: And the pIC50 (second compound 0.003 µM)?
Answer: > 8.50

Question: And the pIC50 (second compound 0.00949 µM)?
Answer: > 8.50

Question: What about the pIC50 (second compound 0.03 µM) of the same compound?
Answer: > 8.50

Question: And the pIC50 (second compound 0.0949 µM)?
Answer: > 8.50

Question: And the pIC50 (second compound 0.3 µM)?
Answer: > 8.50

Question: And the viability, T/C (second compound 0.000949 µM, first compound 0.00316 µM)?
Answer: 37.9%

Question: And the viability, T/C (second compound 0.000949 µM, first compound 0.01 µM)?
Answer: 34.3%

Question: And the viability, T/C [1]?
Answer: 19.9%

Question: And the viability, T/C [2]?
Answer: 27%

Question: What about the viability, T/C [3] of the same compound?
Answer: 19.2%

Question: What about the viability, T/C [4] of the same compound?
Answer: 9.69%

Question: And the viability, T/C (second compound 0.003 µM, first compound 0.00316 µM)?
Answer: 15.3%

Question: What about the viability, T/C (second compound 0.003 µM, first compound 0.01 µM) of the same compound?
Answer: 11.6%

Question: What about the viability, T/C [7] of the same compound?
Answer: 10.8%

Question: What about the viability, T/C [8] of the same compound?
Answer: 12.3%

Question: And the viability, T/C [9]?
Answer: 12%

Question: And the viability, T/C [10]?
Answer: 9.95%

Question: What about the viability, T/C (second compound 0.00949 µM, first compound 0.00316 µM) of the same compound?
Answer: 9.77%

Question: What about the viability, T/C (second compound 0.00949 µM, first compound 0.01 µM) of the same compound?
Answer: 10%

Question: What about the viability, T/C [13] of the same compound?
Answer: 16.4%

Question: And the viability, T/C [14]?
Answer: 12.3%

Question: And the viability, T/C [15]?
Answer: 11.2%

Question: And the viability, T/C [16]?
Answer: 7.94%

Question: What about the viability, T/C (second compound 0.03 µM, first compound 0.00316 µM) of the same compound?
Answer: 13.3%

Question: And the viability, T/C (second compound 0.03 µM, first compound 0.01 µM)?
Answer: 11%

Question: And the viability, T/C [19]?
Answer: 11.1%

Question: And the viability, T/C [20]?
Answer: 9.53%

Question: What about the viability, T/C [21] of the same compound?
Answer: 9.66%

Question: What about the viability, T/C [22] of the same compound?
Answer: 12.4%

Question: And the viability, T/C (second compound 0.0949 µM, first compound 0.00316 µM)?
Answer: 11.5%

Question: And the viability, T/C (second compound 0.0949 µM, first compound 0.01 µM)?
Answer: 10.9%

Question: And the viability, T/C [25]?
Answer: 12.8%

Question: And the viability, T/C [26]?
Answer: 11.3%

Question: And the viability, T/C [27]?
Answer: 7.92%

Question: And the viability, T/C [28]?
Answer: 10.5%

Question: What about the viability, T/C (second compound 0.3 µM, first compound 0.00316 µM) of the same compound?
Answer: 15.4%

Question: What about the viability, T/C (second compound 0.3 µM, first compound 0.01 µM) of the same compound?
Answer: 12.6%

Question: And the viability, T/C [31]?
Answer: 11.2%

Question: What about the viability, T/C [32] of the same compound?
Answer: 9.08%

Question: What about the viability, T/C [33] of the same compound?
Answer: 8.09%

Question: And the viability, T/C [34]?
Answer: 10.1%
